The target of data set [1] is T1, CYP2D6 (Homo sapiens, UniProt P10635).
T1 construct: tissue XenoTech LLC, Celsis-In Vitro Technologies, or Tissue Transformation Technologies; host or cells: pooled human liver microsomes
Nature of the data set: CYP inhibition in pooled human liver microsomes: CYP2D6. Type of data set: in vitro ADME. Conditions: CYP2D6, HLM, estimated, concentrations up to 400 μmol/L. The protocol: (§1) The final concentration of each probe substrate was near the experimentally determined Km value for the indicated enzyme. Ataluren or prototypical CYP inhibitors (positive controls) was incubated (n = 3) with probe substrates and HLM in 100 mmol/L phosphate buffer (pH 7.4) in a total volume of approximately 0.25 mL, and the reactions were initiated by the addition of 1 mmol/L NADPH at 37°C. The reactions were carried out using previously established conditions to ensure linearity with respect to protein concentration and incubation time (Table S1). Incubations were stopped with the addition of ice‐cold acetonitrile. Metabolite formation in incubations with test compound and control inhibitors was assessed with LC‐MS/MS methods for each of the reaction products as described in Table S2. […] After 7 minutes incubation at 37°C, the reaction was stopped by the addition of ice‐cold acetonitrile, followed by membrane plate filtration. The filtrates were used for LC‐MS/MS analysis. […] IC50 values were determined by nonlinear regression with GraphPad Prism 5 using the following four‐parameter sigmoidal‐logistic IC50 equation: Fit=background+range-background/[1+I/IC50^slope]
(§2) Where, I is the inhibitor concentration, and background was set to 0 and range to 100, as percent of control values are utilized. K i was determined by nonlinear regression with GraphPad Prism 5 using best fit model.

Data set [2] in a line: Glucuronidation in pooled human lung microsomes. Type of data set: in vitro ADME. Conditions: lung microsomes 1 mg protein/mL, 10 μmol/L. The protocol:
Ataluren at 10 μmol/L, was incubated (n = 1) with pooled human intestinal, lung, and kidney microsomes (1 mg protein/mL, preactivated with alamethicin) to evaluate if ataluren‐O‐1β‐acyl glucuronide will be formed in these extrahepatic tissues. Incubation mixtures and procedures were essentially the same as the above. The supernatant fractions were analyzed by LC‐MS/MS to quantify the formation of ataluren‐O‐1β‐acyl glucuronide and the loss of ataluren. Detailed LC‐MS/MS conditions are summarized in LC‐MS/MS Analysis section. […] The ataluren acyl glucuronide formation rate after 60 minutes incubation was calculated using the amount of metabolite formed (pmol) divided by the protein amount in the incubation sample ([…]) and the incubation time (60 minutes).
Quantification of ataluren loss and ataluren‐O‐1β‐acyl glucuronide formation was carried out with an LC‐MS/MS system, which consisted of two Shimadzu LC‐10ADvp pumps, a SPD10‐AVP UV/Vis detector, a Shimadzu SILHTA autosampler, a Shimadzu DGU‐14A degasser, and a Sciex API 4000 QTRAP mass spectrometer equipped with a Turbo Ionspray ionization source that operated in positive ionization mode. […] Ion transitions monitored were at m/z 285 → m/z 123 for ataluren, m/z 461 → m/z 285 for ataluren acyl glucuronide, and m/z 289 → m/z 127 for ataluren‐D4 (internal standard), respectively.

Data set [3] addresses T2, CYP1A2 (Homo sapiens, UniProt P05177).
T2 construct: tissue XenoTech LLC, Celsis-In Vitro Technologies, or Tissue Transformation Technologies; host or cells: pooled human liver microsomes
T2 sequence (P05177 1-516): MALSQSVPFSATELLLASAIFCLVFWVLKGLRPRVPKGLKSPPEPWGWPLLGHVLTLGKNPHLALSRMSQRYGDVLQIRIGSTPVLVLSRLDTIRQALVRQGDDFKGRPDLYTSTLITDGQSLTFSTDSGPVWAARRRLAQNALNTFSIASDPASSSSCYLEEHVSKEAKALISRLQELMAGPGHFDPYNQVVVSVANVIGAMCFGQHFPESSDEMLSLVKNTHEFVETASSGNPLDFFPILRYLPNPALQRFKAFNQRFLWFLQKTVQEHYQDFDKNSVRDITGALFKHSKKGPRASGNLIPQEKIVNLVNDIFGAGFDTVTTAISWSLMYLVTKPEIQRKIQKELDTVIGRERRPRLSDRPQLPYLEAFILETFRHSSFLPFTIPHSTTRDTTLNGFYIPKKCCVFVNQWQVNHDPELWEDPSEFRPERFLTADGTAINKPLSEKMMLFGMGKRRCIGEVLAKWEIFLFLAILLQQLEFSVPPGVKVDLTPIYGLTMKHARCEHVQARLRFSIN
Nature of the data set: CYP inhibition in pooled human liver microsomes: CYP1A2. Format: in vitro ADME. The conditions noted are these: CYP1A2, HLM, estimated, concentrations up to 400 μmol/L. How it is done:
as §1, §2

For data set [4] the following is noted: DMD patients, oral 10, 10, 20 mg/kg/day (morning, mid-day and evening dose); read-out: mean Cmax at the steady state; cited from earlier work.

T1 sequence (P10635 whole entry): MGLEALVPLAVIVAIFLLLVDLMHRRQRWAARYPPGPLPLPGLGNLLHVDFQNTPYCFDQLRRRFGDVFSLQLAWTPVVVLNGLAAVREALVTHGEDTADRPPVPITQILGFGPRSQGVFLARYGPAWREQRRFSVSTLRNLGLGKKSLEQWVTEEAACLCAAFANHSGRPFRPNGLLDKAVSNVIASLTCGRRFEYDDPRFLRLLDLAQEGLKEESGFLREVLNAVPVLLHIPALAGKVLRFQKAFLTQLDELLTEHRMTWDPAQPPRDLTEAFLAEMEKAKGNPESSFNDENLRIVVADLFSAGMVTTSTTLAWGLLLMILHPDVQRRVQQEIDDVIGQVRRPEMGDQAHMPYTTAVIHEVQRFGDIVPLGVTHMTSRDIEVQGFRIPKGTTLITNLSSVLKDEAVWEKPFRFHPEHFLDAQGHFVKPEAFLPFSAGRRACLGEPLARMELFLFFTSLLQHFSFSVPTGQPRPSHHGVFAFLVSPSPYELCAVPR

For the compound `O=C(O)c1cccc(-c2noc(-c3ccccc3F)n2)c1` [ataluren, Ataluren], the half-maximal inhibitory concentration (IC50) in data set [1] and in data set [3] was greater than 400 µM in each case. Also, the “Glucuronidation of ataluren observed” value in data set [2] is recorded as “not in lung microsomes”. Besides, the Cmax in data set [4] was roughly 79.9 µM.

Usually IC50 stands for the point on the concentration scale where inhibition reaches its midpoint. Usually Cmax stands for the highest concentration seen after dosing.

(Values after article PMC7083565, “In vitro metabolism, reaction phenotyping, enzyme kinetics, CYP inhibition and induction potential of ataluren” (Pharmacology Research & Perspectives, 2020).)
